Reference: the supplement of paper PMC10307832

Legend:
Test in all cases: relative viability (nuclei count vs DMSO), 5 days (fraction); higher = more cells survive
[1] = compound: Cn1cc(-c2cnn3c(N)c(Br)c([C@@H]4CCCNC4)nc23)cn1 + CC(=O)c1c(C)c2cnc(Nc3ccc(N4CCNCC4)cn3)nc2n(C2CCCC2)c1=O [Palbociclib] (partner 0.5 µM)
How it was run: (§1)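 Lung cancer cell lines were pin-tool dosed in 1536-well plates on the day after seeding, with either a lone drug or a fixed anchor-drug dose plus five library-drug doses (not always all listed) in √10 steps. Nuclei were counted on 4× images after 5 days. Relative viability is the ratio of treated-well to vehicle-well nuclei counts, with each value a median of duplicate plates.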

[2] = compound: Cn1cc(-c2cnn3c(N)c(Br)c([C@@H]4CCCNC4)nc23)cn1 + CCNC(=O)c1noc(-c2cc(C(C)C)c(O)cc2O)c1-c1ccc(CN2CCOCC2)cc1 [Luminespib] (partner 0.01 µM)
How it was run: as §1

[3] = compound: Cn1cc(-c2cnn3c(N)c(Br)c([C@@H]4CCCNC4)nc23)cn1 + COc1cccc2cc(-c3nc([C@H]4CC[C@H](C(=O)O)CC4)n4ncnc(N)c34)[nH]c12 [OSI-027] (partner 0.5 µM)
How it was run: as §1

[4] = compound: Cn1cc(-c2cnn3c(N)c(Br)c([C@@H]4CCCNC4)nc23)cn1 + CS(=O)(=O)N1CCN(Cc2cc3nc(-c4cccc5[nH]ncc45)nc(N4CCOCC4)c3s2)CC1 [Pictilisib] (partner 1 µM)
How it was run: as §1

Cell Line | relative viability ([1]; first compound 0.05 µM) | relative viability ([1]; first compound 0.1581 µM) | relative viability ([1]; first compound 0.5 µM) | relative viability ([1]; first compound 1.581 µM) | relative viability ([1]; first compound 5 µM) | relative viability ([2]; first compound 0.05 µM) | relative viability ([2]; first compound 0.1581 µM) | relative viability ([2]; first compound 0.5 µM) | relative viability ([2]; first compound 1.581 µM) | relative viability ([2]; first compound 5 µM) | relative viability ([3]; first compound 0.05 µM) | relative viability ([3]; first compound 0.1581 µM) | relative viability ([3]; first compound 0.5 µM) | relative viability ([3]; first compound 1.581 µM) | relative viability ([3]; first compound 5 µM) | relative viability ([4]; first compound 0.05 µM) | relative viability ([4]; first compound 0.1581 µM) | relative viability ([4]; first compound 0.5 µM) | relative viability ([4]; first compound 1.581 µM) | relative viability ([4]; first compound 5 µM)
NCI-H650 | 0.372 | 0.357 | 0.36 | 0.313 | 0.324 | 0.807 | 0.872 | 0.749 | 0.811 | 0.345 | 0.571 | 0.503 | 0.54 | 0.476 | 0.485 | 1.06 | 0.882 | 0.804 | 0.749 | 0.602
LCLC-103H | 0.521 | 0.447 | 0.467 | 0.515 | 0.466 | 1.05 | 1.02 | 0.895 | 0.699 | 0.816 | 0.433 | 0.43 | 0.516 | 0.405 | 0.389 | 0.565 | 0.555 | 0.522 | 0.489 | 0.466
LOU-NH91 | 0.544 | 0.539 | 0.47 | 0.506 | 0.52 | 0.321 | 0.368 | 0.285 | 0.667 | 0.307 | 0.752 | 0.711 | 0.684 | 0.727 | 0.701 | 0.518 | 0.515 | 0.527 | 0.535 | 0.511
NCI-H1650 | 0.248 | 0.366 | 0.281 | 0.244 | 0.254 | – | 0.146 | 0.241 | 0.194 | 0.186 | – | 0.634 | 0.726 | 0.467 | 0.345 | 0.66 | 0.654 | 0.681 | 0.479 | 0.24
NCI-H3122 | 0.169 | 0.164 | 0.227 | 0.182 | 0.163 | 0.0947 | 0.0737 | 0.0857 | 0.0666 | 0.12 | 1.26 | 1.06 | 0.987 | 0.543 | 0.929 | 0.635 | 0.647 | 0.604 | 0.526 | 0.606
PC-3 [JPC-3] | 0.499 | 0.53 | – | 0.512 | 0.562 | 0.702 | 0.642 | 0.619 | 0.564 | 0.748 | 0.717 | 0.918 | 0.804 | 0.702 | 0.847 | 0.692 | 0.746 | 0.744 | 0.667 | 0.747
NCI-H1651 | 0.556 | 0.564 | 0.536 | 0.502 | 0.424 | 0.721 | 0.767 | 0.848 | 0.327 | 0.195 | 0.653 | 0.787 | 0.618 | 0.453 | 0.242 | 0.662 | 0.613 | 0.607 | 0.283 | 0.312
NCI-H2087 | 0.222 | 0.292 | 0.235 | 0.241 | 0.177 | 0.143 | 0.168 | 0.192 | 0.151 | 0.175 | 0.498 | 0.696 | 0.641 | 0.454 | 0.503 | 0.821 | 1 | 0.95 | 0.852 | 0.803
